Laboratory results taken from ChEMBL document CHEMBL1681673, “Anti-tumor pyrimidinylpiperazines bind to the prosurvival Bcl-2 protein family member Bcl-XL” (Bioorg Med Chem Lett, 2011).

tested on: A549; assay: Growth inhibition of human A549 cells after 24 hrs by SRB assay; format: functional; settings: A549, 24 h

| SMILES | GI50 |
| --- | --- |
| CCc1cnc(N2CCN(Cc3cccc([N+](=O)[O-])c3)CC2)nc1 | 88 µM |
| CCc1cnc(N2CCN(Cc3ccccc3-c3cn[nH]c3)CC2)nc1 | 51.4 µM |
| CCc1cnc(N2CCN(Cc3cc(F)ccc3-c3cn[nH]c3)CC2)nc1 | 49.2 µM |
| CCc1cnc(N2CCN(Cc3cccc(N)c3)CC2)nc1 | > 100 µM |
| CCc1cnc(N2CCN(Cc3cc(N)ccc3Cl)CC2)nc1 | 62.9 µM |
| CCc1cnc(N2CCN(Cc3cccc(O)c3)CC2)nc1 | > 100 µM |
| CCc1cnc(N2CCN(Cc3cc(O)ccc3Br)CC2)nc1 | 57.6 µM |
| CCc1cnc(N2CCN(Cc3cc(F)ccc3Br)CC2)nc1 | > 100 µM |
| CCc1cnc(N2CCN(Cc3ccccc3Br)CC2)nc1 | 70.9 µM |
| CCc1cnc(N2CCN(Cc3ccccc3)CC2)nc1 | > 100 µM |

Results, then the compound that gave them:

| GI50 | SMILES |
| --- | --- |
| 67.2 µM | CCc1cnc(N2CCN(Cc3cc([N+](=O)[O-])ccc3Cl)CC2)nc1 |
| 49.6 µM | c1ccc(Cc2cnc(N3CCN(Cc4ccccc4)CC3)nc2)cc1 |
| 86.5 µM | Brc1ccccc1CN1CCN(c2ncc(Cc3ccccc3)cn2)CC1 |
| > 100 µM | Fc1ccc(Br)c(CN2CCN(c3ncc(Cc4ccccc4)cn3)CC2)c1 |
| 51.1 µM | Oc1cccc(CN2CCN(c3ncc(Cc4ccccc4)cn3)CC2)c1 |
| 23.7 µM | Oc1ccc(Br)c(CN2CCN(c3ncc(Cc4ccccc4)cn3)CC2)c1 |
| 61.2 µM | O=[N+]([O-])c1cccc(CN2CCN(c3ncc(Cc4ccccc4)cn3)CC2)c1 |
| > 100 µM | O=[N+]([O-])c1ccc(Cl)c(CN2CCN(c3ncc(Cc4ccccc4)cn3)CC2)c1 |
| 8.43 µM | c1ccc(Cc2cnc(N3CCN(Cc4ccccc4-c4cn[nH]c4)CC3)nc2)cc1 |
| 9.91 µM | Fc1ccc(-c2cn[nH]c2)c(CN2CCN(c3ncc(Cc4ccccc4)cn3)CC2)c1 |
| 75.4 µM | Nc1cccc(CN2CCN(c3ncc(Cc4ccccc4)cn3)CC2)c1 |
| 15.1 µM | Nc1ccc(Cl)c(CN2CCN(c3ncc(Cc4ccccc4)cn3)CC2)c1 |

biological target: Bcl-2-like protein 1 (Homo sapiens, UniProt Q07817); assay: Binding affinity to Bcl-xL after 2 hrs by fluorescein-labeled Bak-BH3 peptide competition binding assay; settings: not given
Sequence (Q07817 whole entry): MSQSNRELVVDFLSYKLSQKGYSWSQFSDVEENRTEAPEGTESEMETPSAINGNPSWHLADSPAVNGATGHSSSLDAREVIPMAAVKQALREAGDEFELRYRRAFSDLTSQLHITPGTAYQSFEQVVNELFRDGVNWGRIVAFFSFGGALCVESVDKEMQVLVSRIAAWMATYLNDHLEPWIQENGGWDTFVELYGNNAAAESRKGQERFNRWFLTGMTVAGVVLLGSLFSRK

| Ki | SMILES |
| --- | --- |
| 0.52 µM | Oc1cccc(CN2CCN(c3ncc(Cc4ccccc4)cn3)CC2)c1 |
| 0.127 µM | c1ccc(Cc2cnc(N3CCN(Cc4ccccc4-c4cn[nH]c4)CC3)nc2)cc1 |
| 0.17 µM | Nc1ccc(Cl)c(CN2CCN(c3ncc(Cc4ccccc4)cn3)CC2)c1 |
